Results reported in patent US12065654B2, “Plants having increased tolerance to herbicides” (BASF SE, priority 2014, dated 2024).

Assays:
Assay type in all cases: biochemical
Hordeum HPPD F404L = target: T1, Hordeum HPPD F404L (Hordeum vulgare, UniProt O48604, A164G/F404L/R146V/R147D/R148G); assay: HPPD activity assay, mutant; settings: Hordeum HPPD variant F404L; normalized on wild-type
T1 construct: subcloned into a modified pET24D (Novagen) expression vector resulting in N-terminally His-tagged expression constructs; His tag (N); made in house; host or cells: E. coli BL21 (DE3)
Procedure: (§1) The activity assay for HPPD is based on the analysis of homogentisic acid by reversed phase HPLC.
(§2) The assay mixture can contain 150 mM potassium phosphate buffer pH 7.0, 50 mM L-ascorbic acid, 100 μM Catalase (Sigma-Aldrich), 1 μM FeSO4 and 0.2 units of purified HPPD enzyme in a total volume of 505 μl. 1 unit is defined as the amount of enzyme that is required to produce 1 nmol of HGA per minute at 20° C.
(§3) The reaction is allowed to proceed for 45 min at room temperature. The reaction is stopped by the addition of 50 μl of 4.5 M phosphoric acid. The sample is filtered using a […] pore size PVDF filtration device. 5 μl of the cleared sample is analyzed on an UPLC HSS T3 column (particle size 1.8 μm, dimensions 2, 1×50 mm; Waters) by isocratic elution using 90% 20 mM NaH2PO4 pH 2.2, 10% methanol (v/v).
(§4) HGA is detected electrochemically at 750 mV (mode: DC; polarity: positive) and quantified by integrating peak areas (Empower software; Waters).
(§5) Inhibitors are dissolved in DMSO (dimethylsulfoxide) to a concentration of 0.5 mM. From this stock solution serial five-fold dilutions are prepared in DMSO, which are used in the assay. The respective inhibitor solution accounts for 1% of the assay volume. Thus, final inhibitor concentrations range from 5 μM to 320 pM, respectively. Activities are normalized by setting the uninhibited enzyme activity to 100%. IC50 values are calculated using non-linear regression.
(§6) Purified, mutant HPPD enzymes are obtained by the methods described above. Dose response and kinetic measurements are carried out using the described HPPD activity assay. Apparent michaelis constants (Km) and maximal reaction velocities (Vmax) are calculated by non-linear regression with the software GraphPad Prism 5 (GraphPad Software, La Jolla, USA) using a substrate inhibition model. […] Weighted means (by standard error) of K. and IC50 values are calculated from at least three independent experiments. The Cheng-Prusoff equation for competitive inhibition (Cheng, Y. C.; Prusoff, W. H. Biochem Pharmacol 1973, 22, 3099-3108) is used to calculate dissociation constants (Ki).
(§7) Field performance of the optimized HPPD enzyme, which is used as a herbicide tolerance trait may depend not only on its lack of sensitivity towards HPPD inhibiting herbicides but also on its activity. To assess the potential performance of a herbicide tolerance trait a tolerance index (TI) is calculated using the following formula: […]
(§8) Easy comparison and ranking of each trait is enabled by normalizing tolerance indexes on the respective wild-type HPPD.

[1] = target: T2, Hordeum HPPD L320H, P321A (Hordeum vulgare, UniProt O48604, L320H/P321A); assay: HPPD activity assay, mutant; settings: Hordeum HPPD variant L320H, normalized on wild-type
T2 construct: His-tag (N); made in house; host or cells: E. coli BL21 (DE3)
Procedure: as §1, §2, §3, §4, §5, §6, §7, §8

Hordeum HPPD L320H = target: T3, Hordeum HPPD L320H (Hordeum vulgare, UniProt O48604, A164G/L320H/R146V/R147D/R148G); assay: HPPD activity assay, mutant; settings: Hordeum HPPD variant L320H; normalized on wild-type;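 note: reaction started with 4-HPP at 0.05 mM after 30 min preincubation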
T3 construct: His-tag (N); made in house; host or cells: E. coli BL21 (DE3)
Procedure: as §1, §2, §3, §4, §5, §6, §7, §8

Hordeum HPPD L320Q = target: T4, Hordeum HPPD L320Q (Hordeum vulgare, UniProt O48604, A164G/L320Q/R146V/R147D/R148G); assay: HPPD activity assay, mutant; settings: Hordeum HPPD variant L320Q; normalized on wild-type
T4 construct: His-tag (N); made in house; host or cells: E. coli BL21 (DE3)
Procedure: as §1, §2, §3, §4, §5, §6, §7, §8

Hordeum HPPD L334E = target: T5, Hordeum HPPD L334E (Hordeum vulgare, UniProt O48604, A164G/L334E/R146V/R147D/R148G); assay: HPPD activity assay, mutant; settings: Hordeum HPPD variant L334E; normalized on wild-type;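 note: reaction started with 4-HPP at 0.05 mM after 30 min preincubation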
T5 construct: His-tag (N); made in house; host or cells: E. coli BL21 (DE3)
Procedure: as §1, §2, §3, §4, §5, §6, §7, §8

[2] = target: T6, Hordeum HPPD L353M, P321R, L320N (Hordeum vulgare, UniProt O48604, L320N/L353M/P321R); assay: HPPD activity assay, mutant; settings: Hordeum HPPD variant L353M, normalized on wild-type
T6 construct: His-tag (N); made in house; host or cells: E. coli BL21 (DE3)
Procedure: as §1, §2, §3, §4, §5, §6, §7, §8

[3] = target: T7, Hordeum HPPD L353M, P321R, L320Q (Hordeum vulgare, UniProt O48604, L320Q/L353M/P321R); assay: HPPD activity assay, mutant; settings: Hordeum HPPD variant L353M, normalized on wild-type;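 note: reaction started with 4-HPP at 0.05 mM after 30 min preincubation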
T7 construct: His-tag (N); made in house; host or cells: E. coli BL21 (DE3)
Procedure: as §1, §2, §3, §4, §5, §6, §7, §8

Hordeum HPPD L320N = target: T8, Hordeum HPPD L320N (Hordeum vulgare, UniProt O48604, A164G/L320N/R146V/R147D/R148G); assay: HPPD activity assay, mutant; settings: Hordeum HPPD variant L320N; normalized on wild-type;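 note: reaction started with 4-HPP at 0.05 mM after 30 min preincubation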
T8 construct: His-tag (N); made in house; host or cells: E. coli BL21 (DE3)
Procedure: as §1, §2, §3, §4, §5, §6, §7, §8

Hordeum HPPD R309K = target: T9, Hordeum HPPD R309K (Hordeum vulgare, UniProt O48604, A164G/R146V/R147D/R148G/R309K); assay: HPPD activity assay, mutant; settings: Hordeum HPPD variant R309K; normalized on wild-type
T9 construct: subcloned into a modified pET24D (Novagen) expression vector resulting in N-terminally His-tagged expression constructs; His tag (N); made in house; host or cells: E. coli BL21 (DE3)
Procedure: as §1, §2, §3, §4, §5, §6, §7, §8

Kordia HPPD = assay: HPPD activity assay; settings: HPPD enzyme Kordia
Procedure: as §1, §2, §3, §4, §5
as §6, with “Using methods which are described in the above examples or well known in the art, purified recombinant wild-type” for “Purified, mutant”, “characterized with respect to their kinetic properties” for “obtained by the methods described above. Dose response”, “sensitivity towards” for “kinetic measurements are carried out using the described”, “inhibiting herbicides.” for “activity assay.”, “Km” for “K.”
as §7, with “the” for “the optimized”
(§9) Easy comparison and ranking of each trait is enabled by normalizing tolerance indexes on Arabidopsis wild-type HPPD.

Rhodococcus HPPD2 = assay: HPPD activity assay; settings: HPPD enzyme Rhodococcus HPPD2
Procedure: as §1, §2, §3, §4, §5
as §6, with “Using methods which are described in the above examples or well known in the art, purified recombinant wild-type” for “Purified, mutant”, “characterized with respect to their kinetic properties” for “obtained by the methods described above. Dose response”, “sensitivity towards” for “kinetic measurements are carried out using the described”, “inhibiting herbicides.” for “activity assay.”, “Km” for “K.”
as §7, with “the” for “the optimized”
as §9

Synechococcus HPPD = assay: HPPD activity assay; settings: HPPD enzyme Synechococcus
Procedure: as §1, §2, §3, §4, §5
as §6, with “Using methods which are described in the above examples or well known in the art, purified recombinant wild-type” for “Purified, mutant”, “characterized with respect to their kinetic properties” for “obtained by the methods described above. Dose response”, “sensitivity towards” for “kinetic measurements are carried out using the described”, “inhibiting herbicides.” for “activity assay.”, “Km” for “K.”
as §7, with “the” for “the optimized”
as §9

Lolium HPPD = assay: HPPD activity assay; settings: HPPD enzyme Lolium
Procedure: as §1, §2, §3, §4, §5
as §6, with “Using methods which are described in the above examples or well known in the art, purified recombinant wild-type” for “Purified, mutant”, “characterized with respect to their kinetic properties” for “obtained by the methods described above. Dose response”, “sensitivity towards” for “kinetic measurements are carried out using the described”, “inhibiting herbicides.” for “activity assay.”, “Km” for “K.”
as §7, with “the” for “the optimized”
as §9

[4] = target: T10, Hordeum HPPD (SEQ ID NO:2) (Hordeum vulgare, UniProt O48604, A164G/R146V/R147D/R148G); assay: HPPD activity assay; settings: for Normalized tolerance index (TI): Hordeum HPPD variant Wild-type (reference, SEQ ID NO: 2); for TI (tolerance index): Hordeum HPPD, not normalized
T10 construct: His-tag (N); made in house; host or cells: E. coli BL21 (DE3)
Procedure: as §1, §2, §3, §4, §5
as §6, with “Using methods which are described in the above examples or well known in the art, purified recombinant wild-type” for “Purified, mutant”, “characterized with respect to their kinetic properties” for “obtained by the methods described above. Dose response”, “sensitivity towards” for “kinetic measurements are carried out using the described”, “inhibiting herbicides.” for “activity assay.”, “Km” for “K.”
as §7, with “the” for “the optimized”
as §9

T6 sequence (O48604 whole entry R146V/R147D/R148G/A164G/L320N/P321R/L353M): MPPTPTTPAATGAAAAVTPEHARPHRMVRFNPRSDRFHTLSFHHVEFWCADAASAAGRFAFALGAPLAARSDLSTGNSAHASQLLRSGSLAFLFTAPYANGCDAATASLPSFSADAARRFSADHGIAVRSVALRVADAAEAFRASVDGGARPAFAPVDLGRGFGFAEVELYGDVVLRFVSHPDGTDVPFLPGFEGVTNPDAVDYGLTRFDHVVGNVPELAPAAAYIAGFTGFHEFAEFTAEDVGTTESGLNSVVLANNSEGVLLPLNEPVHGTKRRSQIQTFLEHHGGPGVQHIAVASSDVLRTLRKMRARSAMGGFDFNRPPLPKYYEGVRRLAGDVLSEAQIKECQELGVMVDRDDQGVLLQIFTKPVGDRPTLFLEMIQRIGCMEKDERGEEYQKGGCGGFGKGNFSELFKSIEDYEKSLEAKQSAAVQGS
T7 sequence (O48604 whole entry R146V/R147D/R148G/A164G/L320Q/P321R/L353M): as the sequence (O48604 whole entry R146V/R147D/R148G/A164G/L320N/P321R/L353M) above, with N320Q counted along it
T10 sequence (O48604 whole entry R146V/R147D/R148G/A164G): as the sequence (O48604 whole entry R146V/R147D/R148G/A164G/L320N/P321R/L353M) above, with N320L, R321P, M353L counted along it
T2 sequence (O48604 whole entry R146V/R147D/R148G/A164G/L320H/P321A): as the sequence (O48604 whole entry R146V/R147D/R148G/A164G/L320N/P321R/L353M) above, with N320H, R321A, M353L counted along it
T1 sequence (O48604 whole entry R146V/R147D/R148G/A164G/F404L): as the sequence (O48604 whole entry R146V/R147D/R148G/A164G/L320N/P321R/L353M) above, with N320L, R321P, M353L, F404L counted along it
T9 sequence (O48604 whole entry R146V/R147D/R148G/A164G/R309K): as the sequence (O48604 whole entry R146V/R147D/R148G/A164G/L320N/P321R/L353M) above, with R309K, N320L, R321P, M353L counted along it
T3 sequence (O48604 whole entry R146V/R147D/R148G/A164G/L320H): as the sequence (O48604 whole entry R146V/R147D/R148G/A164G/L320N/P321R/L353M) above, with N320H, R321P, M353L counted along it
T5 sequence (O48604 whole entry R146V/R147D/R148G/A164G/L334E): as the sequence (O48604 whole entry R146V/R147D/R148G/A164G/L320N/P321R/L353M) above, with N320L, R321P, L334E, M353L counted along it
T4 sequence (O48604 whole entry R146V/R147D/R148G/A164G/L320Q): as the sequence (O48604 whole entry R146V/R147D/R148G/A164G/L320N/P321R/L353M) above, with N320Q, R321P, M353L counted along it
T8 sequence (O48604 whole entry R146V/R147D/R148G/A164G/L320N): as the sequence (O48604 whole entry R146V/R147D/R148G/A164G/L320N/P321R/L353M) above, with R321P, M353L counted along it

Structure (SMILES) | Normalized tolerance index (TI) (Hordeum HPPD F404L) | Normalized tolerance index (TI) [1] | Normalized tolerance index (TI) (Hordeum HPPD L320H) | Normalized tolerance index (TI) (Hordeum HPPD L320Q) | Normalized tolerance index (TI) (Hordeum HPPD L334E) | Normalized tolerance index (TI) [2] | Normalized tolerance index (TI) [3] | Normalized tolerance index (TI) (Hordeum HPPD L320N) | Normalized tolerance index (TI) (Hordeum HPPD R309K) | TI normalized to Arabidopsis HPPD (Kordia HPPD) | TI normalized to Arabidopsis HPPD (Rhodococcus HPPD2) | TI normalized to Arabidopsis HPPD (Synechococcus HPPD) | TI normalized to Arabidopsis HPPD (Lolium HPPD) | Ki [4] [nM] | Normalized tolerance index (TI) [4] | TI (tolerance index) [4]
Cc1c(C(=O)c2cnn(C)c2O)ccc(S(C)(=O)=O)c1C1=NOCC1 [Inhibitor 1, [3-(4,5-dihydroisoxazol-3-yl)-2-methyl-4-methylsulfonyl-phenyl]-(5-hydroxy-1-methyl-pyrazol-4-yl)methanone] | 3 | 5.1 | 5.4 | 1.2 | 3.6 | 2.6 | 5.3 | 1.3 | 1.5 | 3.2 | 19.3 | 6.7 | 1.7 | 7.9 | 1 | 3.5E−3
CS(=O)(=O)c1ccc(C(=O)C2C(=O)CCCC2=O)c([N+](=O)[O-])c1 [Inhibitor 2, 2-(4-methylsulfonyl-2-nitro-benzoyl)cyclohexane-1,3-dione] | 0.9 | 3.5 | 1.2 | 0.3 | 4 | 0.4 | 2.2 | 0.3 | 1.3 | 0.1 | 0.3 | 2.1 | 2.6 | 73 | 1 | 3.2E−2
COCCOCc1nc(C(F)(F)F)ccc1C(=O)C1=C(O)C2CCC(C2)C1=O (stereo not drawn) [Inhibitor 3, 2-hydroxy-3-[2-(2-methoxyethoxymethyl)-6-(trifluoromethyl)pyridine-3-carbonyl]bicyclo[3.2.1]oct-2-en-4-one] | 0.4 | 2.5 | 3 | 1.1 | 1.2 | 0.6 | 0.6 | 1.2 | 2.5 | 0.3 | 1.3 | 0.0 | 2.5 | – | 1 | –
CS(=O)(=O)c1ccc(C(=O)C2C(=O)CCCC2=O)c(Cl)c1COCC(F)(F)F [Inhibitor 4, 2-[2-chloro-4-methylsulfonyl-3-(2,2,2-trifluoroethoxymethyl)benzoyl]cyclohexane-1,3-dione] | 1.2 | 4.3 | 5.1 | 1 | 2.1 | 2.2 | 1.3 | 1.5 | 4.6 | 0.1 | 0.5 | 0.1 | 2.6 | – | 1 | –
